Test results reported in patent US20250376461A1, “INDAZOLE DERIVATIVES FOR TREATING TRPM3-MEDIATED DISORDERS” (Katholieke Universiteit Leuven, priority 2022, published 2025).
pIC50: −log10 of the molar value.

target: T1, mouse TRPM3α2 (mTRPM3) ion channel (Mus musculus, UniProt J9SQF3); assay: TRPM3 ion channel driven Ca2+ uptake, Fluo-4 AM assay, mTRPM3alpha2 overexpressing flip-in HEK293 cells stimulated with pregnenolone sulfate (50 μM); format: cell-based; conditions: mTRPM3 overexpressing HEK293 cells stimulated with pregnenolone sulfate (50 μM), activity ranges A, B, C
T1 construct: expressed in transfected cells; host or cells: flip-in HEK293
T1 sequence (J9SQF3 1-1709 isoform J9SQF3-12): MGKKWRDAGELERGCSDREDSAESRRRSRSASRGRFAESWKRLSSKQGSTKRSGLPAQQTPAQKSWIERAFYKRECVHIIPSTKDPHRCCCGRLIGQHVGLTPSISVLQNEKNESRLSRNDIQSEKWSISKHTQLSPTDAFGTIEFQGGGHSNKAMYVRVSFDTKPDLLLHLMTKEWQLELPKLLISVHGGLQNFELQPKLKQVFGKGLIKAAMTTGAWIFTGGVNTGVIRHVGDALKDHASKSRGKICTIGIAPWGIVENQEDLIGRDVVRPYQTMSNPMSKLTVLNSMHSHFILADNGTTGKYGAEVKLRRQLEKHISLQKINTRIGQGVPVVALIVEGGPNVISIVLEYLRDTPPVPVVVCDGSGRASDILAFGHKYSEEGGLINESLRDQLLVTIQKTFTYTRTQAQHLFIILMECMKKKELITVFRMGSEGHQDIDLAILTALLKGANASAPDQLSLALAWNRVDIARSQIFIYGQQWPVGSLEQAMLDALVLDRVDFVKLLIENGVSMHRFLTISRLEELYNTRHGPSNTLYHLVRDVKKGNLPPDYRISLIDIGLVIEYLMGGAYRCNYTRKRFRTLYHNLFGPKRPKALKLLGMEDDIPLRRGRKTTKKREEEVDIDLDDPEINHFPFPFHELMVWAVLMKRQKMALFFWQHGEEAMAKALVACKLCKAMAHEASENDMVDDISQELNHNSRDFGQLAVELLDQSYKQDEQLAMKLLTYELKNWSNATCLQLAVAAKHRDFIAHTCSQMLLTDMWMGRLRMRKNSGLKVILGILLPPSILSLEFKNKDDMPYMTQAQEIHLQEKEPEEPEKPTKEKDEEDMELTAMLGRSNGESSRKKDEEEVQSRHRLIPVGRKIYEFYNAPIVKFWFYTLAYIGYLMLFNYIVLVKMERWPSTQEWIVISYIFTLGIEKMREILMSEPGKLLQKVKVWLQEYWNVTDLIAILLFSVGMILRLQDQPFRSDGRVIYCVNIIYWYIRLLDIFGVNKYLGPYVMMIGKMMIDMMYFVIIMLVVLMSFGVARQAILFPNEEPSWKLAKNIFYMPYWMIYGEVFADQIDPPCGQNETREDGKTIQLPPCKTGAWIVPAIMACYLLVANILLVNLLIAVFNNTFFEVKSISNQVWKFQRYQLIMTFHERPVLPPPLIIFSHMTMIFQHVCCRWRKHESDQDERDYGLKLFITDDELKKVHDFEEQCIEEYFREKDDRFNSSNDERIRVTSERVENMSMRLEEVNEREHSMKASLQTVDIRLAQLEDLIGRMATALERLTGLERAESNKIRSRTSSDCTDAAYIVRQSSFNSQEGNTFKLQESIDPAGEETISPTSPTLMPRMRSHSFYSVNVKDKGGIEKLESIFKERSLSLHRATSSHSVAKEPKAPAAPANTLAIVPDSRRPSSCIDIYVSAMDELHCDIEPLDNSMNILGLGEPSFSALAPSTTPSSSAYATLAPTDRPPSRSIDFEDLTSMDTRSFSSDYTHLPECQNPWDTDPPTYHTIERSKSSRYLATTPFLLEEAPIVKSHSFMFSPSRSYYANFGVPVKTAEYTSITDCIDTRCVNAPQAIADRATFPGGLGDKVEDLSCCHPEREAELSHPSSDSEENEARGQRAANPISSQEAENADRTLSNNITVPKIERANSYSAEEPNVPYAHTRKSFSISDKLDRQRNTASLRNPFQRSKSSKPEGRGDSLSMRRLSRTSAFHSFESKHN
Summary of the method: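 Ca2+ influx via mouse TRPM3α2 was opened with pregnenolone sulfate (50 μM) and tracked by Fluo-4 AM fluorescence at 485/535 nm, read directly after adding about 2000 stably transfected HEK293 cells per well to compound. IC50 values come from percent inhibition scaled to vehicle and positive-control inhibitor signals.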

CN1CCC(NC(=O)c2c3cc(OCc4ccccn4)ccc3nn2C)CC1 [Cpd 084, 2-methyl-N-(1-methylpiperidin-4-yl)-5-[(pyridin-2-yl)methoxy]-2H-indazole-3-carboxamide] was tested. Which pIC50 did it give?
The pIC50 was 4.70 to 6.00.

With Cn1nc2ccc(OCc3ccccn3)cc2c1C(=O)NC1(C(N)=O)CCOCC1 [Cpd 085, N-(4-carbamoyloxan-4-yl)-2-methyl-5-[(pyridin-2-yl)methoxy]-2H-indazole-3-carboxamide] as the compound, how does the pIC50 read?
Its pIC50 is 4.70 to 6.00.

Cn1nc2ccc(OCc3ccccn3)cc2c1C(=O)NC1(CO)CCC1 [Cpd 086, N-[1-(hydroxymethyl)cyclobutyl]-2-methyl-5-[(pyridin-2-yl)methoxy]-2H-indazole-3-carboxamide] was tested. Which pIC50 did it give?
The pIC50 was 4.70 to 6.00.

How did the pIC50 turn out when Cn1nc2ccc(OCc3cccnc3C(F)(F)F)cc2c1C(=O)NC1(C(N)=O)COC1 [Cpd 087, N-(3-carbamoyloxetan-3-yl)-2-methyl-5-{[2-(trifluoromethyl)pyridin-3-yl]methoxy}-2H-indazole-3-carboxamide] was run?
Its pIC50 is 4.70 to 6.00.

CN1CC(NC(=O)c2c3cc(OCc4ccnn4C)ccc3nn2C)C(F)(F)C1 (stereo not drawn) [Cpd 088, N-(4,4-difluoro-1-methylpyrrolidin-3-yl)-2-methyl-5-[(1-methyl-1H-pyrazol-5-yl)methoxy]-2H-indazole-3-carboxamide] was tested. Which pIC50 did it give?
The pIC50 was under 4.70.

How did the pIC50 turn out when Cc1ncsc1COc1ccc2nn(C)c(C(=O)NCc3cccc(O)n3)c2c1 [Cpd 089, N-[(6-hydroxypyridin-2-yl)methyl]-2-methyl-5-[(4-methyl-1,3-thiazol-5-yl)methoxy]-2H-indazole-3-carboxamide] was run?
The pIC50 was over 6.00.

With Cn1nc2ccc(OCc3cccnc3C(F)(F)F)cc2c1C(=O)NC1CCN(CCO)C1=O (stereo not drawn) [Cpd 090, N-[1-(2-hydroxyethyl)-2-oxopyrrolidin-3-yl]-2-methyl-5-{[2-(trifluoromethyl)pyridin-3-yl]methoxy}-2H-indazole-3-carboxamide] as the compound, how does the pIC50 read?
Its pIC50 is 4.70 to 6.00.

With Cn1nc2ccc(OCc3ccccc3)cc2c1C(=O)NC(CO)C(F)(F)F (stereo not drawn) [Cpd 091, 5-(benzyloxy)-2-methyl-N-(1,1,1-trifluoro-3-hydroxypropan-2-yl)-2H-indazole-3-carboxamide] as the compound, how does the pIC50 read?
Its pIC50 is 4.70 to 6.00.

How did the pIC50 turn out when CN1CCC(NC(=O)c2c3cc(OCc4ccccc4)ccc3nn2C)C1 (stereo not drawn) [Cpd 092, 5-(benzyloxy)-2-methyl-N-(1-methylpyrrolidin-3-yl)-2H-indazole-3-carboxamide] was run?
The pIC50 was 4.70 to 6.00.

How did the pIC50 turn out when CN1CCC(NC(=O)c2c3cc(OCc4ccccc4F)ccc3nn2C)CC1 [Cpd 093, 5-[(2-fluorophenyl)methoxy]-2-methyl-N-(1-methylpiperidin-4-yl)-2H-indazole-3-carboxamide] was run?
Its pIC50 is 4.70 to 6.00.

With Cn1nc2ccc(OCc3ccccc3F)cc2c1C(=O)NC1(CO)CCC1 [Cpd 094, 5-[(2-fluorophenyl)methoxy]-N-[1-(hydroxymethyl)cyclobutyl]-2-methyl-2H-indazole-3-carboxamide] as the compound, how does the pIC50 read?
Its pIC50 is 4.70 to 6.00.

How did the pIC50 turn out when Cn1nc2ccc(OCc3ccccc3F)cc2c1C(=O)NC1(CO)CC1 [Cpd 095, 5-[(2-fluorophenyl)methoxy]-N-[1-(hydroxymethyl)cyclopropyl]-2-methyl-2H-indazole-3-carboxamide] was run?
The pIC50 was 4.70 to 6.00.

Cn1nc2ccc(OCc3ccccc3F)cc2c1C(=O)NC1(CO)CCOCC1 [Cpd 096, 5-[(2-fluorophenyl)methoxy]-N-[4-(hydroxymethyl)oxan-4-yl]-2-methyl-2H-indazole-3-carboxamide] was tested. Which pIC50 did it give?
Its pIC50 is 4.70 to 6.00.

Cn1nc2ccc(OCc3ccccc3F)cc2c1C(=O)NC1(C(N)=O)CCOCC1 [Cpd 097, N-(4-carbamoyloxan-4-yl)-5-[(2-fluorophenyl)methoxy]-2-methyl-2H-indazole-3-carboxamide] was tested. Which pIC50 did it give?
The pIC50 was over 6.00.

With C[C@@H](NC(=O)c1c2cc(OCc3ccccc3F)ccc2nn1C)C(N)=O [Cpd 098, (2R)-2-({5-[(2-fluorophenyl)methoxy]-2-methyl-2H-indazol-3-yl}formamido)propanamide] as the compound, how does the pIC50 read?
Its pIC50 is 4.70 to 6.00.

C[C@H](NC(=O)c1c2cc(OCc3ccccc3F)ccc2nn1C)C(N)=O [Cpd 099, (2S)-2-({5-[(2-fluorophenyl)methoxy]-2-methyl-2H-indazol-3-yl}formamido)propanamide] was tested. Which pIC50 did it give?
Its pIC50 is over 6.00.

How did the pIC50 turn out when Cn1nc2ccc(OCc3ccccn3)cc2c1C(=O)NC1(CO)COC1 [Cpd 100, N-[3-(hydroxymethyl)oxetan-3-yl]-2-methyl-5-[(pyridin-2-yl)methoxy]-2H-indazole-3-carboxamide] was run?
The pIC50 was 4.70 to 6.00.

With Cc1ncsc1COc1ccc2nn(C)c(C(=O)N[C@@H](C)C(N)=O)c2c1 [Cpd 101, (2S)-2-({2-methyl-5-[(4-methyl-1,3-thiazol-5-yl)methoxy]-2H-indazol-3-yl}formamido)propanamide] as the compound, how does the pIC50 read?
The pIC50 was 4.70 to 6.00.

How did the pIC50 turn out when Cn1nc2ccc(OCc3ccccn3)cc2c1C(=O)NC1CCOCC1 [Cpd 102, 2-methyl-N-(oxan-4-yl)-5-[(pyridin-2-yl)methoxy]-2H-indazole-3-carboxamide] was run?
The pIC50 was under 4.70.

Cc1ncc(COc2ccc3nn(C)c(C(=O)NC(C)(C)C(N)=O)c3c2)s1 [Cpd 103, 2-methyl-2-({2-methyl-5-[(2-methyl-1,3-thiazol-5-yl)methoxy]-2H-indazol-3-yl}formamido)propanamide] was tested. Which pIC50 did it give?
The pIC50 was 4.70 to 6.00.

With Cn1nc2ccc(OCc3ccccn3)cc2c1C(=O)NC1(CO)CC1 [Cpd 104, N-[1-(hydroxymethyl)cyclopropyl]-2-methyl-5-[(pyridin-2-yl)methoxy]-2H-indazole-3-carboxamide] as the compound, how does the pIC50 read?
The pIC50 was under 4.70.

With Cc1ncc(COc2ccc3nn(C)c(C(=O)NC4(CO)COC4)c3c2)s1 [Cpd 105, N-[3-(hydroxymethyl)oxetan-3-yl]-2-methyl-5-[(2-methyl-1,3-thiazol-5-yl)methoxy]-2H-indazole-3-carboxamide] as the compound, how does the pIC50 read?
The pIC50 was 4.70 to 6.00.

Cn1nc2ccc(OCc3ccccn3)cc2c1C(=O)NC1(CO)CCOCC1 [Cpd 106, N-[4-(hydroxymethyl)oxan-4-yl]-2-methyl-5-[(pyridin-2-yl)methoxy]-2H-indazole-3-carboxamide] was tested. Which pIC50 did it give?
Its pIC50 is 4.70 to 6.00.

Cc1ncsc1COc1ccc2nn(C)c(C(=O)NC3(C(N)=O)CCOCC3)c2c1 [Cpd 107, N-(4-carbamoyloxan-4-yl)-2-methyl-5-[(4-methyl-1,3-thiazol-5-yl)methoxy]-2H-indazole-3-carboxamide] was tested. Which pIC50 did it give?
The pIC50 was 4.70 to 6.00.

How did the pIC50 turn out when Cc1ncc(COc2ccc3nn(C)c(C(=O)NC4(CO)CCC4)c3c2)s1 [Cpd 108, N-[1-(hydroxymethyl)cyclobutyl]-2-methyl-5-[(2-methyl-1,3-thiazol-5-yl)methoxy]-2H-indazole-3-carboxamide] was run?
The pIC50 was 4.70 to 6.00.

Cc1ncsc1COc1ccc2nn(C)c(C(=O)NC3(CO)COC3)c2c1 [Cpd 109, N-[3-(hydroxymethyl)oxetan-3-yl]-2-methyl-5-[(4-methyl-1,3-thiazol-5-yl)methoxy]-2H-indazole-3-carboxamide] was tested. Which pIC50 did it give?
Its pIC50 is 4.70 to 6.00.

With Cc1ncsc1COc1ccc2nn(C)c(C(=O)NC(C)(C)C(N)=O)c2c1 [Cpd 110, 2-methyl-2-({2-methyl-5-[(4-methyl-1,3-thiazol-5-yl)methoxy]-2H-indazol-3-yl}formamido)propanamide] as the compound, how does the pIC50 read?
The pIC50 was 4.70 to 6.00.

With Cc1ncc(COc2ccc3nn(C)c(C(=O)NC4CCN(C)CC4)c3c2)s1 [Cpd 111, 2-methyl-5-[(2-methyl-1,3-thiazol-5-yl)methoxy]-N-(1-methylpiperidin-4-yl)-2H-indazole-3-carboxamide] as the compound, how does the pIC50 read?
The pIC50 was under 4.70.

With Cc1ncsc1COc1ccc2nn(C)c(C(=O)NC3CCN(C)CC3)c2c1 [Cpd 112, 2-methyl-5-[(4-methyl-1,3-thiazol-5-yl)methoxy]-N-(1-methylpiperidin-4-yl)-2H-indazole-3-carboxamide] as the compound, how does the pIC50 read?
The pIC50 was under 4.70.

With Cc1ncsc1COc1ccc2nn(C)c(C(=O)N[C@H](CO)C(N)=O)c2c1 [Cpd 113, (2R)-3-hydroxy-2-({2-methyl-5-[(4-methyl-1,3-thiazol-5-yl)methoxy]-2H-indazol-3-yl}formamido)propanamide] as the compound, how does the pIC50 read?
Its pIC50 is 4.70 to 6.00.

With Cc1ncc(COc2ccc3nn(C)c(C(=O)NC4(CO)CC4)c3c2)s1 [Cpd 114, N-[1-(hydroxymethyl)cyclopropyl]-2-methyl-5-[(2-methyl-1,3-thiazol-5-yl)methoxy]-2H-indazole-3-carboxamide] as the compound, how does the pIC50 read?
The pIC50 was under 4.70.

Cc1ncsc1COc1ccc2nn(C)c(C(=O)NC3CCOCC3)c2c1 [Cpd 115, 2-methyl-5-[(4-methyl-1,3-thiazol-5-yl)methoxy]-N-(oxan-4-yl)-2H-indazole-3-carboxamide] was tested. Which pIC50 did it give?
Its pIC50 is 4.70 to 6.00.

How did the pIC50 turn out when Cc1ncsc1COc1ccc2nn(C)c(C(=O)N[C@@H](CO)C(N)=O)c2c1 [Cpd 116, (2S)-3-hydroxy-2-({2-methyl-5-[(4-methyl-1,3-thiazol-5-yl)methoxy]-2H-indazol-3-yl}formamido)propanamide] was run?
The pIC50 was over 6.00.

With Cc1ncc(COc2ccc3nn(C)c(C(=O)N[C@H](C)C(N)=O)c3c2)s1 [Cpd 117, (2R)-2-({2-methyl-5-[(2-methyl-1,3-thiazol-5-yl)methoxy]-2H-indazol-3-yl}formamido)propanamide] as the compound, how does the pIC50 read?
The pIC50 was under 4.70.

How did the pIC50 turn out when Cc1ncsc1COc1ccc2nn(C)c(C(=O)N[C@H](C)C(N)=O)c2c1 [Cpd 118, (2R)-2-({2-methyl-5-[(4-methyl-1,3-thiazol-5-yl)methoxy]-2H-indazol-3-yl}formamido)propanamide] was run?
The pIC50 was 4.70 to 6.00.

With Cc1ncc(COc2ccc3nn(C)c(C(=O)N[C@@H](C)C(N)=O)c3c2)s1 [Cpd 119, (2S)-2-({2-methyl-5-[(2-methyl-1,3-thiazol-5-yl)methoxy]-2H-indazol-3-yl}formamido)propanamide] as the compound, how does the pIC50 read?
The pIC50 was 4.70 to 6.00.

Cc1ncc(COc2ccc3nn(C)c(C(=O)NC4CCOCC4)c3c2)s1 [Cpd 120, 2-methyl-5-[(2-methyl-1,3-thiazol-5-yl)methoxy]-N-(oxan-4-yl)-2H-indazole-3-carboxamide] was tested. Which pIC50 did it give?
The pIC50 was under 4.70.

How did the pIC50 turn out when C[C@@H](NC(=O)c1c2cc(OCC3CC3)ccc2nn1C)C(N)=O [Cpd 121, (2R)-2-{[5-(cyclopropylmethoxy)-2-methyl-2H-indazol-3-yl]formamido}propanamide] was run?
The pIC50 was over 6.00.

With Cn1nc2ccc(OCc3cccnc3C(F)(F)F)cc2c1C(=O)O [Cpd 122, 2-methyl-5-((2-(trifluoromethyl)pyridin-3-yl)methoxy)-2H-indazole-3-carboxylic acid] as the compound, how does the pIC50 read?
The pIC50 was 4.70 to 6.00.
